Measurements taken from the Kinase Knowledgebase extract (Sharma et al. 2016).

biological target: MAPK14 (human) (UniProt Q16539); assay: Inhibtion of MAPK14 Kinase Activity
Sequence (Q16539 whole entry, looked up): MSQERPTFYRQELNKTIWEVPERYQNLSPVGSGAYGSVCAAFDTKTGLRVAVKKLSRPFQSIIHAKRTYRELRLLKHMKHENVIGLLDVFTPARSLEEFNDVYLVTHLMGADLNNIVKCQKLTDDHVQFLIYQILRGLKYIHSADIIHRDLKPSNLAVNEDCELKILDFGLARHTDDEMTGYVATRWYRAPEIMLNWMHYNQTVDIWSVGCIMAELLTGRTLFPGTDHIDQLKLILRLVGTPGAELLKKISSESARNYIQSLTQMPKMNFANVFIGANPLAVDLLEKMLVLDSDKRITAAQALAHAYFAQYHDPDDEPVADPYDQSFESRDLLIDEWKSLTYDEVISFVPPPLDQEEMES

| Structure (SMILES) | IC50 |
| --- | --- |
| Cc1cc(C(=O)c2ccc(=O)n(-c3c(F)cc(OCCCN[C@@H](CC(C)C)C(=O)OC4CCCC4)cc3F)c2N)ccc1F | < 100 nM |
| Nc1c(C(=O)c2ccc(F)cc2F)ccc(=O)n1-c1c(F)cc(OCCCN[C@H](C(=O)O)C2CCCCC2)cc1F | < 100 nM |
| Nc1c(C(=O)c2ccc(F)cc2)ccc(=O)n1-c1c(F)cc(CN[C@@H](Cc2ccccc2)C(=O)OC2CCCC2)cc1F | < 100 nM |
| Nc1c(C(=O)c2ccc(F)cc2)ccc(=O)n1-c1c(F)cc(OCCCN[C@@H](Cc2ccccc2)C(=O)O)cc1F | < 100 nM |
| Cc1cc(C(=O)c2ccc(=O)n(-c3c(F)cc(OCCCN[C@@H](CC(C)C)C(=O)O)cc3F)c2N)ccc1F | < 100 nM |
| Cc1cc(C(=O)c2ccc(=O)n(-c3c(F)cc(OCCCN[C@@H](Cc4ccccc4)C(=O)OC4CCCC4)cc3F)c2N)ccc1F | < 100 nM |
| CC(C)C[C@H](NCCCOc1cc(F)c(-n2c(N)c(C(=O)c3ccc(F)cc3F)ccc2=O)c(F)c1)C(=O)OCCN1CCOCC1 | < 100 nM |
| Nc1c(C(=O)c2ccc(F)cc2F)ccc(=O)n1-c1c(F)cc(OCCCN[C@H](C(=O)OC2Cc3ccccc3C2)c2ccccc2)cc1F | < 100 nM |
| Nc1c(C(=O)c2ccc(F)cc2)ccc(=O)n1-c1c(F)cc(OCCCN[C@@H](Cc2ccccc2)C(=O)OC2CCCC2)cc1F | < 100 nM |
| Nc1c(C(=O)c2ccc(F)cc2F)ccc(=O)n1-c1ccc(CN[C@H](C(=O)O)c2ccccc2)cc1 | < 100 nM |
| CC(C)C[C@H](NC1CCC(Oc2cc(F)c(-n3c(N)c(C(=O)c4ccc(F)cc4)ccc3=O)c(F)c2)CC1)C(=O)OC1CCCC1 (some centres not stated) | < 100 nM |
| Nc1c(C(=O)c2ccc(F)cc2)ccc(=O)n1-c1ccc(OCCCN[C@@H](Cc2ccccc2)C(=O)OC2CCCC2)cc1 | < 100 nM |
| Nc1c(C(=O)c2ccc(F)cc2F)ccc(=O)n1-c1ccc(OCCCN[C@H](C(=O)OC2CCCC2)c2ccccc2)cc1 | < 100 nM |
| CC(C)C[C@H](NCCCOc1cc(F)c(-n2c(N)c(C(=O)c3ccc(F)cc3F)ccc2=O)c(F)c1)C(=O)OC(C)(C)C | < 100 nM |
| Nc1c(C(=O)c2ccc(F)cc2F)ccc(=O)n1-c1ccc(CN[C@H](C(=O)OC2CCCC2)c2ccccc2)cc1 | < 100 nM |
| Nc1c(C(=O)c2ccc(F)cc2F)ccc(=O)n1-c1c(F)cc(OCCCN[C@@H](C(=O)O)c2ccccc2)cc1F | < 100 nM |
| CC(C)C[C@H](NCCCCCOc1cc(F)c(-n2c(N)c(C(=O)c3ccc(F)cc3F)ccc2=O)c(F)c1)C(=O)OC(C)(C)C | < 100 nM |
| Nc1c(C(=O)c2ccc(F)cc2)ccc(=O)n1-c1c(F)cc(OCCCN[C@H](C(=O)OC2CCCC2)c2ccccc2)cc1F | < 100 nM |
| Nc1c(C(=O)c2ccc(F)cc2)ccc(=O)n1-c1c(F)cc(OC2CCC(N[C@H](C(=O)OC3CCCC3)c3ccccc3)CC2)cc1F (some centres not stated) | < 100 nM |

| Structure (SMILES) | IC50 |
| --- | --- |
| CC(C)(C)OC(=O)[C@@H](NCCCOc1cc(F)c(-n2c(N)c(C(=O)c3ccc(F)cc3F)ccc2=O)c(F)c1)C1CCCCC1 | < 100 nM |
| Nc1c(C(=O)c2ccc(F)cc2)ccc(=O)n1-c1ccc(CCN[C@H](C(=O)O)c2ccccc2)cc1 | < 100 nM |
| Nc1c(C(=O)c2ccc(F)cc2F)ccc(=O)n1-c1c(F)cc(OCCCN[C@H](C(=O)OC2CCCC2)C2CCCCC2)cc1F | < 100 nM |
| CC(C)C[C@@H](NCCCOc1cc(F)c(-n2c(N)c(C(=O)c3ccc(F)cc3F)ccc2=O)c(F)c1)C(=O)O | < 100 nM |
| Nc1c(C(=O)c2ccc(F)cc2F)ccc(=O)n1-c1c(F)cc(OCCCN[C@H](C(=O)OC2CC3CCC2C3)c2ccccc2)cc1F (some centres not stated) | < 100 nM |
| Cc1cc(C(=O)c2ccc(=O)n(-c3ccc(OCCCN[C@@H](CC(C)C)C(=O)O)cc3)c2N)ccc1F | < 100 nM |
| Nc1c(C(=O)c2ccc(F)cc2)ccc(=O)n1-c1c(F)cc(OC2CCC(N[C@@H](Cc3ccccc3)C(=O)O)CC2)cc1F (some centres not stated) | < 100 nM |
| O=C(c1ccc(F)cc1)c1ccc(=O)[nH]c1Nc1c(F)cc(CN[C@@H](Cc2ccccc2)C(=O)OC2CCCC2)cc1F | < 100 nM |
| Nc1c(C(=O)c2ccc(F)cc2F)ccc(=O)n1-c1ccc(CN[C@@H](Cc2ccccc2)C(=O)OC2CCCC2)cc1 | < 100 nM |
| Nc1c(C(=O)c2ccc(F)cc2F)ccc(=O)n1-c1ccc(OCCCN[C@H](C(=O)O)c2ccccc2)cc1 | < 100 nM |
| Nc1c(C(=O)c2ccc(F)cc2)ccc(=O)n1-c1c(F)cc(OC2CCC(N[C@@H](Cc3ccccc3)C(=O)OC3CCCC3)CC2)cc1F (some centres not stated) | < 100 nM |
| CC(C)C[C@H](NCCCOc1ccc(-n2c(N)c(C(=O)c3ccc(F)cc3)ccc2=O)cc1)C(=O)O | < 100 nM |
| CC(C)C[C@H](NCCCOc1ccc(-n2c(N)c(C(=O)c3ccc(F)cc3F)ccc2=O)cc1)C(=O)OC1CCCC1 | < 100 nM |
| CC(C)C[C@H](NCc1cc(F)c(-n2c(N)c(C(=O)c3ccc(F)cc3F)ccc2=O)c(F)c1)C(=O)O | < 100 nM |
| CCOC(=O)[C@H](CC(C)C)NCCCOc1cc(F)c(-n2c(N)c(C(=O)c3ccc(F)cc3)ccc2=O)c(F)c1 | < 100 nM |
| CC(C)(C)OC(=O)[C@@H](NCCCOc1cc(F)c(-n2c(N)c(C(=O)c3ccc(F)cc3F)ccc2=O)c(F)c1)c1ccccc1 | < 100 nM |
| CC(C)C[C@H](NC1CCC(Oc2cc(F)c(-n3c(N)c(C(=O)c4ccc(F)cc4)ccc3=O)c(F)c2)CC1)C(=O)O (some centres not stated) | < 100 nM |
| Cc1cc(C(=O)c2ccc(=O)n(-c3ccc(OCCCN[C@@H](Cc4ccccc4)C(=O)O)cc3)c2N)ccc1F | < 100 nM |
